# US9616062B2, “Cyclin dependent kinase inhibitors and methods of use” (priority 2009, dated 2017)
# Tests used:
# [1] = test system: human peripheral blood T cells (memory and naive); assay: Human peripheral blood T cell proliferation after PMA and ionomycin stimulation (BrdU, Ki-67 FACS); format: cell-based
# Protocol: FIG. 13: CDK4/6 inhibitors suppress T cell proliferation upon stimulation through TCR pathway in both memory and naïve compartments. Human peripheral blood T cells were purified using Automacs by CD3 positive selection before being treated with CDK4/6 inhibitors and stimulated with PMA and Inomycin for 48 hrs. The proliferation of memory […] T cells after stimulation by PMA and Inomycin was measured by FACS staining of BrdU+ or Ki-67+ cells. The percentages of inhibition are shown, which indicates more inhibition of memory compartment than naïve compartment.
# FIG. 14: CDK4/6 inhibitors suppress T cell proliferation upon stimulation through TCR pathway. […] Proliferation determined by BrdU or Ki67 incorporation. […]
# FIG. 15: Changes of CD4 T cell composition after CDK4/6 inhibition. […] The memory and terminal differentiated T cell fractions as assessed by BrdU incorporation are reduced after CDK4/6 inhibition. […]
# FIG. 16: Changes of CD4 T cell composition after CDK4/6 inhibition. […] The memory and terminal differentiated T cell fractions as assessed by Ki67 staining are reduced after CDK4/6 inhibition. […]
# Similar results were seen using human lymphocytes. […] In FIG. 15, the effects of CDK4/6 inhibition on specific Tcell fractions is assessed, with and without TCR, showing CDK4/6 inhibition has a greater effect on proliferation of memory cells relative to naïve cells. […]
# [2] = test system: primary human renal proximal tubule epithelial cells; assay: Cell proliferation, CellTiter-Glo, 72 hours; format: cell-based; conditions: 0, 10 nM-3 μM, 72 hours post exposure
# Protocol: FIG. 3: CDK4/6 inhibition blocks proliferation of primary human renal proximal tubule epithelial cells. Cells were treated with varying concentrations of PD0332991 for 72 hours. Following incubation, cell proliferation was quantified using CellTiter-Glo® (Promega, Madison, Wis., United States of America). Data represent the mean of four replicates (relative light units, RLU) +/−standard deviation.
# Primary normal human renal proximal epithelial cells (American Type Culture Collection (ATCC), Manassas, Va., United States of America) were cultured in renal epithelial cell basal media supplemented with renal epithelial cell growth kit according to the manufacturer's recommendations. […] For the γH2AX assay, cells were fixed, permeabilized, and stained with anti-γH2AX as per γH2AX Flow Kit (Millipore, Billerica, Mass., United States of America). γH2AX levels were assessed by flow cytometry. Cell proliferation was assessed by seeding 1×10^3 cells per well in a 96-well tissue culture plate in 100 μL of growth medium. […] At the end of the recovery period, cell number was quantified using CellTiter-Glo® (Promega, Fitchburg, Wis., United States of America) or WST-1 reagent (TaKaRa Bio USA, Madison, Wis., United States of America). […] 100 μL of TOXILIGHT™ reagent is added and incubated for 5 minutes and read in a luminometer at 1 second/well. […]
smiles,measurement,setting,value
"CC(=O)c1c(C)c2cnc(Nc3ccc(N4CCNCC4)cn3)nc2n(C2CCCC2)c1=O [PD0332991, 6-acetyl-8-cyclopentyl-5-methyl-2-(5-piperazin-1-yl-pyridin-2-ylamino)-8H-pyrido-[2,3-d]-pyrimidin-7-one]","proliferation of memory vs naive T cells (BrdU incorporation, Ki67 expression)",[1],more significant decrease in homeostatic proliferation of memory T cells than naive T cells
same,inhibition of cell proliferation vs DMSO control,[2],clear dose dependent inhibition of cell proliferation
